Reference: patent publication US9120749B2, “Quinoline derivatives and MELK inhibitors containing the same” (ONCOTHERAPY SCIENCE, INC., priority 2010, dated 2015)

Key:
MELK = MELK (Homo sapiens, UniProt Q14680); assay: Kinase assay: MELK activity, phosphorylation of FITC-labeled histone H3 peptide measured by IMAP fluorescence polarization; assay type: biochemical; settings: read-out: IC50 (μM) (kinase assay)
Summary of the method: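 FP readout: FITC-histone H3 peptide phosphorylation, read 0.5 h (RT) after stopping with 3x volume of IMAP progressive binding solution. Final DMSO 1%.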

T47D cells = assay: Cell-based assay: anti-proliferative activity, Cell Counting Kit-8, 72 hours (T47D); settings: Homo sapiens, T47D, 72 h
Summary of the method: (§1)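 Cellular growth is read by CCK-8 colorimetric kit 72 h after inhibitor addition to seeded cells, and IC50 values are derived from the resulting data; MELK protein levels in these lines are checked beforehand by immunoblotting whole crude lysate.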

A549 cells = assay: Cell-based assay: anti-proliferative activity, Cell Counting Kit-8, 72 hours (A549); settings: Homo sapiens, A549, 72 h, 72 hours
Summary of the method: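 A549 cells were seeded in 96-well plates and exposed to candidate inhibitors for 72 hours. Cell growth was then measured with Cell Counting Kit-8, and IC50 values were calculated from the resulting growth data.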

HT-1197 cells = assay: Cell-based assay: anti-proliferative activity, Cell Counting Kit-8, 72 hours (HT-1197, negative control without MELK expression); settings: Homo sapiens, HT1197, 72 h, HT1197 cells (negative control, no MELK expression), 72 hours
Summary of the method: as §1

DU4475 cells = assay: Cell-based assay: anti-proliferative activity, Cell Counting Kit-8, 72 hours (DU4475); settings: Homo sapiens, DU-4475, 72 h

MELK, sequence (Q14680 whole entry, looked up): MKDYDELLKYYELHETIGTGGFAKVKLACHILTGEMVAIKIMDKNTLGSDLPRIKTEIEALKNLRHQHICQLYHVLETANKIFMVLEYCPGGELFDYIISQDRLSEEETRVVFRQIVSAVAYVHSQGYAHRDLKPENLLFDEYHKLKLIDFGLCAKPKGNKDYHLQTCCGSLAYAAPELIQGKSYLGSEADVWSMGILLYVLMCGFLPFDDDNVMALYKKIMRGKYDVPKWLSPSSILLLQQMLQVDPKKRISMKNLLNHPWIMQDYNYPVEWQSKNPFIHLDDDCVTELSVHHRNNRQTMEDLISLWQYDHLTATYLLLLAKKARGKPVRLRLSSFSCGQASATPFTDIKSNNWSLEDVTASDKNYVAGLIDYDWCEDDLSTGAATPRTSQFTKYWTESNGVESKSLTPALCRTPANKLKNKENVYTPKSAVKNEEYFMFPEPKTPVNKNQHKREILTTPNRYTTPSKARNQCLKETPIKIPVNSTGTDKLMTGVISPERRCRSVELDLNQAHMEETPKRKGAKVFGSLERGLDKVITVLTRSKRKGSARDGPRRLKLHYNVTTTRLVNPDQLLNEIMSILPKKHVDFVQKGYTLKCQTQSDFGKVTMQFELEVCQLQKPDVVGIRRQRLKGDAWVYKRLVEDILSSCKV

Structure (SMILES)	IC50 (MELK) [µM]	IC50 (T47D cells) [µM]	IC50 (A549 cells) [µM]	IC50 (HT-1197 cells) [µM]	IC50 (DU4475 cells) [µM]
O=C(c1cnc2ccc(-c3cc(Cl)c(O)c(Cl)c3)cc2c1Nc1ccc(CN2CCCC2)nc1)C1CC1 [Example 658, Cyclopropyl{6-(3,5-dichloro-4-hydroxyphenyl)-4-[6-(pyrrolidin-1-ylmethyl)pyridin-3-ylamino]quinolin-3-yl}methanone]	0.0078	0.3	0.072	4.5	0.07
CN(C)C1CCN(Cc2ccc(Nc3c(C(=O)C4CC4)cnc4ccc(-c5cc(F)c(O)c(Cl)c5)cc34)cc2)C1 (centres unmarked) [Example 696, (6-(3-chloro-5-fluoro-4-hydroxyphenyl)-4-(4-((3-(dimethylamino)pyrrolidin-1-yl)methyl)phenylamino)quinolin-3-yl)(cyclopropyl)methanone]	0.012	0.46	0.18	5.4	0.17
COc1cc(-c2ccc3ncc(C(=O)C4CC4)c(Nc4ccc(N5CCC(O)C5)nc4)c3c2)cc(Cl)c1O (centres unmarked) [Example 669, (6-(3-chloro-4-hydroxy-5-methoxyphenyl)-4-(6-(3-hydroxypyrrolidin-1-yl)pyridin-3-ylamino)quinolin-3-yl)(cyclopropyl)methanone]	0.012	0.24	0.46	4.4	0.75
O=C(c1cnc2ccc(-c3cc(F)c(O)c(Cl)c3)cc2c1NC1CCC(N2CC[C@@H](F)C2)CC1)C1CC1 (stereo partly drawn) [Example 642, (R)-(6-(3-chloro-5-fluoro-4-hydroxyphenyl)-4-(4-(3-fluoropyrrolidin-1-yl)cyclohexylamino)quinolin-3-yl)(cyclopropyl)methanone]	0.0075	0.17	0.2	0.76	0.11
CN(C)CC(O)c1ccc(Nc2c(C(=O)C3CC3)cnc3ccc(-c4cc(Cl)c(O)c(Cl)c4)cc23)cc1 (centres unmarked) [Example 709, Cyclopropyl{6-(3,5-dichloro-4-hydroxyphenyl)-4-[4-(2-(dimethylamino)-1-hydroxyethyl)phenylamino]quinolin-3-yl}methanone]	0.0035	0.2	0.14	3.8	0.077
COc1cc(-c2ccc3ncc(C(=O)C4CC4)c(Nc4cnc(N5CCCC(N)C5)nc4)c3c2)cc(Cl)c1O (centres unmarked) [Example 644, (4-(2-(3-aminopiperidin-1-yl)pyrimidin-5-ylamino)-6-(3-chloro-4-hydroxy-5-methoxyphenyl)quinolin-3-yl)(cyclopropyl)methanone]	0.0028	0.047	0.23	2.4	0.068
CN(C)C[C@]1(O)CC[C@@H](Nc2c(C(=O)C3CC3)cnc3ccc(-c4cc(Cl)c(O)c(Cl)c4)cc23)CC1 [Example 652, cyclopropyl(6-(3,5-dichloro-4-hydroxyphenyl)-4-((cis-4-((dimethylamino)methyl)-4-hydroxycyclohexyl)amino)quinolin-3-yl)methanone]	0.0011	0.15	0.15	1.4	0.051
CCC(=O)c1cnc2ccc(-c3cc(F)c(O)c(Cl)c3)cc2c1N[C@H]1CC[C@H](CN(C)C)CC1 [Example 714, 1-(6-(3-chloro-5-fluoro-4-hydroxyphenyl)-4-((trans-4-((dimethylamino)methyl)cyclohexyl)amino)quinolin-3-yl)propan-1-one]	0.004	0.054	0.11	0.55	0.067
CN1CCCC(n2cc(Nc3c(C(=O)C4CC4)cnc4ccc(-c5cc(Cl)c(O)c(Cl)c5)cc34)cn2)C1 (centres unmarked) [Example 703, Cyclopropyl{6-(3,5-dichloro-4-hydroxyphenyl)-4-[1-(1-methylpiperidin-3-yl)-1H-pyrazol-4-ylamino]quinolin-3-yl}methanone]	0.0013	0.33	0.11	5.5	0.052
O=C(c1cnc2ccc(-c3cc(F)c(O)c(Cl)c3)cc2c1NC1CCNCC1)C1CC1 [Example 719, (6-(3-chloro-5-fluoro-4-hydroxyphenyl)-4-(piperidin-4-ylamino)quinolin-3-yl)(cyclopropyl)methanone]	0.0092	0.32	0.69	10	0.17
COc1cc(-c2ccc3ncc(C(=O)C4CC4)c(Nc4ccc(C(O)CN(C)C)cc4)c3c2)cc(Cl)c1O (centres unmarked) [Example 708, (6-(3-chloro-4-hydroxy-5-methoxyphenyl)-4-(4-(2-(dimethylamino)-1-hydroxyethyl)phenylamino)quinolin-3-yl)(cyclopropyl)methanone]	0.0065	0.41	0.3	4.6	0.25
CN(C)C1CCN(c2ccc(Nc3c(C(=O)C4CC4)cnc4ccc(-c5cc(Cl)c(O)c(Cl)c5)cc34)cn2)C1 (centres unmarked) [Example 690, cyclopropyl(6-(3,5-dichloro-4-hydroxyphenyl)-4-(6-(3-(dimethylamino)pyrrolidin-1-yl)pyridin-3-ylamino)quinolin-3-yl)methanone]	0.0047	0.25	0.3	4	0.19
NCCOc1ccc(Nc2c(C(=O)C3CC3)cnc3ccc(-c4cc(Cl)c(O)c(Cl)c4)cc23)cn1 [Example 723, (4-(6-(2-Aminoethoxy)pyridin-3-ylamino)-6-(3,5-dichloro-4-hydroxyphenyl)quinolin-3-yl)(cyclopropyl)methanone]	0.0019	0.099	0.23	2.1	0.028
O=C(c1cnc2ccc(-c3cc(Cl)c(O)c(Cl)c3)cc2c1N[C@H]1CC[C@H](CNCCF)CC1)C1CC1 [Example 700]	0.0015	0.47	0.47	2.2	0.25
COc1cc(-c2ccc3ncc(C(=O)C4CC4)c(Nc4ccc(OCCN)nc4)c3c2)cc(Cl)c1O [Example 722, (4-(6-(2-aminoethoxy)pyridin-3-ylamino)-6-(3-chloro-4-hydroxy-5-methoxyphenyl)quinolin-3-yl)(cyclopropyl)methanone]	0.0043	0.19	0.32	2.3	0.19
COc1cc(-c2ccc3ncc(C(=O)C4CC4)c(Nc4ccc(OCCN(C)C)nc4)c3c2)cc(Cl)c1O [Example 712, (6-(3-chloro-4-hydroxy-5-methoxyphenyl)-4-(6-(2-(dimethylamino)ethoxy)pyridin-3-ylamino)quinolin-3-yl)(cyclopropyl)methanone]	0.0036	0.31	0.31	5.4	0.34
CN(C)Cc1ccc(Nc2c(C(=O)C3CC3)cnc3ccc(-c4cc(Cl)c(O)c(Cl)c4)cc23)cn1 [Example 657, Cyclopropyl{6-(3,5-dichloro-4-hydroxyphenyl)-4-[6-((dimethylamino)methyl)pyridin-3-ylamino]quinolin-3-yl}methanone]	0.0089	0.31	0.18	2.8	0.098
CN[C@H]1CC[C@H](n2cc(Nc3c(C(=O)C4CC4)cnc4ccc(-c5cc(Cl)c(O)c(Cl)c5)cc34)cn2)CC1 [Example 705, Cyclopropyl{6-(3,5-dichloro-4-hydroxyphenyl)-4-[1-(trans-4-(methylamino)cyclohexyl)-1H-pyrazol-4-ylamino]quinolin-3-yl}methanone]	0.0017	0.24	1.7	10	0.072
CN(C)CCOc1ccc(Nc2c(C(=O)C3CC3)cnc3ccc(-c4cc(Cl)c(O)c(Cl)c4)cc23)cn1 [Example 711, Cyclopropyl(6-(3,5-dichloro-4-hydroxyphenyl)-4-(6-(2-(dimethylamino)ethoxy)pyridin-3-ylamino)quinolin-3-yl)methanone]	0.0032	0.22	0.11	5.7	0.073
CN(C)CCc1cccc(Nc2c(C(=O)C3CC3)cnc3ccc(-c4cc(Cl)c(O)c(Cl)c4)cc23)c1 [Example 698, Cyclopropyl{6-(3,5-dichloro-4-hydroxyphenyl)-4-[3-(2-(dimethylamino)ethyl)phenylamino]quinolin-3-yl}methanone]	0.0024	0.3	0.05	10	0.04
CN(C)CCc1cccc(Nc2c(C(=O)C3CC3)cnc3ccc(-c4cc(F)c(O)c(Cl)c4)cc23)c1 [Example 693, {6-(3-Chloro-5-fluoro-4-hydroxyphenyl)-4-[3-(2-(dimethylamino)ethyl)phenylamino]quinolin-3-yl}(cyclopropyl)methanone]	0.0083	0.37	0.09	10	0.085
COC1CCN(C2CCC(Nc3c(C(=O)C4CC4)cnc4ccc(-c5cc(Cl)c(O)c(Cl)c5)cc34)CC2)C1 (centres unmarked) [Example 661, cyclopropyl(6-(3,5-dichloro-4-hydroxyphenyl)-4-(4-(3-methoxypyrrolidin-1-yl)cyclohexylamino)quinolin-3-yl)methanone]	0.0018	0.25	0.17	1.4	0.1
